Measurements as given in PubChem BioAssay (NCI).
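1) Cells in 96-well plates. 2) Compound, 48 h, 5 concentrations. 3) Linear interpolation between surrounding doses. 4) Unreached endpoint = highest concentration. Abbreviation: GI50, concentration required for 50% inhibition of growth. TGI denotes the concentration required for complete inhibition of growth.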

Key:
Assay in all cases: NCI-60 cell line screen, 48 h
HT29 colon = tested on: HT29 colon
SF-295 CNS = tested on: SF-295 CNS
M14 melanoma = tested on: M14 melanoma
HCC-2998 colon = tested on: HCC-2998 colon
SF-268 CNS = tested on: SF-268 CNS
786-0 renal = tested on: 786-0 renal
OVCAR-5 ovarian = tested on: OVCAR-5 ovarian
DU-145 prostate = tested on: DU-145 prostate
A498 renal = tested on: A498 renal
T-47D breast = tested on: T-47D breast
UACC-257 melanoma = tested on: UACC-257 melanoma
NCI-H522 lung = tested on: NCI-H522 lung
SF-539 CNS = tested on: SF-539 CNS
COLO 205 colon = tested on: COLO 205 colon
TK-10 renal = tested on: TK-10 renal
SW-620 colon = tested on: SW-620 colon
LOX IMVI melanoma = tested on: LOX IMVI melanoma
OVCAR-4 ovarian = tested on: OVCAR-4 ovarian
HL-60(TB) leukemia = tested on: HL-60(TB) leukemia
MDA-MB-231 breast = tested on: MDA-MB-231 breast
MDA-MB-468 breast = tested on: MDA-MB-468 breast
NCI-H226 lung = tested on: NCI-H226 lung
SK-MEL-5 melanoma = tested on: SK-MEL-5 melanoma
BT-549 breast = tested on: BT-549 breast
SNB-19 CNS = tested on: SNB-19 CNS
IGROV1 ovarian = tested on: IGROV1 ovarian
CAKI-1 renal = tested on: CAKI-1 renal
SNB-75 CNS = tested on: SNB-75 CNS
A549 NSCLC = tested on: A549 NSCLC
NCI-H23 lung = tested on: NCI-H23 lung
SK-MEL-28 melanoma = tested on: SK-MEL-28 melanoma
NCI-H460 lung = tested on: NCI-H460 lung
KM12 colon = tested on: KM12 colon
OVCAR-8 ovarian = tested on: OVCAR-8 ovarian
RPMI-8226 leukemia = tested on: RPMI-8226 leukemia
MOLT-4 leukemia = tested on: MOLT-4 leukemia
U251 CNS = tested on: U251 CNS
MDA-MB-435 = tested on: MDA-MB-435
EKVX NSCLC = tested on: EKVX NSCLC
ACHN renal = tested on: ACHN renal
RXF 393 renal = tested on: RXF 393 renal
MALME-3M melanoma = tested on: MALME-3M melanoma
SN12C renal = tested on: SN12C renal
CCRF-CEM leukemia = tested on: CCRF-CEM leukemia
MCF7 breast = tested on: MCF7 breast
SK-MEL-2 melanoma = tested on: SK-MEL-2 melanoma
HS 578T breast = tested on: HS 578T breast
K-562 leukemia = tested on: K-562 leukemia
HCT-15 colon = tested on: HCT-15 colon
OVCAR-3 ovarian = tested on: OVCAR-3 ovarian
UO-31 renal = tested on: UO-31 renal
SR leukemia = tested on: SR leukemia
NCI/ADR-RES ovarian = tested on: NCI/ADR-RES ovarian
HOP-92 NSCLC = tested on: HOP-92 NSCLC
PC-3 prostate = tested on: PC-3 prostate
UACC-62 melanoma = tested on: UACC-62 melanoma
SK-OV-3 ovarian = tested on: SK-OV-3 ovarian
HOP-62 NSCLC = tested on: HOP-62 NSCLC

## CCCCSc1nc(Nc2ccc(/C(C)=N/NC(N)=S)cc2)c(C#N)c(-c2ccc(F)cc2)n1
HT29 colon
  GI50: 5.89 µM
  TGI: > 100 µM
SF-295 CNS
  GI50: 1.21 µM
  TGI: 2.75 µM
M14 melanoma
  GI50: 3.52 µM
  TGI: 19.6 µM
HCC-2998 colon
  GI50: 3.29 µM
  TGI: 18.7 µM
SF-268 CNS
  GI50: 13.6 µM
  TGI: 89.3 µM
786-0 renal
  GI50: 1.69 µM
  TGI: 3.88 µM
OVCAR-5 ovarian
  GI50: 12.5 µM
  TGI: 50.5 µM
DU-145 prostate
  GI50: 3.12 µM
  TGI: 49.8 µM
A498 renal
  GI50: 2.7 µM
  TGI: 7.1 µM
T-47D breast
  GI50: 1.19 µM
  TGI: 18 µM
UACC-257 melanoma
  GI50: 15.4 µM
  TGI: 61.8 µM
NCI-H522 lung
  GI50: 1.92 µM
  TGI: 7.05 µM
SF-539 CNS
  GI50: 1.4 µM
  TGI: 4.49 µM
COLO 205 colon
  GI50: 4.03 µM
  TGI: 23.1 µM
TK-10 renal
  GI50: 2.92 µM
  TGI: 7.08 µM
SW-620 colon
  GI50: 2.7 µM
  TGI: 42.1 µM
LOX IMVI melanoma
  GI50: 1.88 µM
  TGI: 10.1 µM
OVCAR-4 ovarian
  GI50: 1.85 µM
  TGI: 85.5 µM
HL-60(TB) leukemia
  GI50: > 100 µM
  TGI: > 100 µM
MDA-MB-231 breast
  GI50: 1.03 µM
  TGI: 4.28 µM
MDA-MB-468 breast
  GI50: 2.26 µM
  TGI: 8.99 µM
NCI-H226 lung
  GI50: 1.59 µM
  TGI: 5.29 µM
SK-MEL-5 melanoma
  GI50: 2.3 µM
  TGI: 12.5 µM
BT-549 breast
  GI50: 6.6 µM
  TGI: 28.1 µM
SNB-19 CNS
  GI50: 2.51 µM
  TGI: 8.31 µM
IGROV1 ovarian
  GI50: 12 µM
  TGI: 30.3 µM
CAKI-1 renal
  GI50: 1.71 µM
  TGI: 4.97 µM
SNB-75 CNS
  GI50: 1.6 µM
  TGI: 6.54 µM
A549 NSCLC
  GI50: 2.35 µM
  TGI: 7.57 µM
NCI-H23 lung
  GI50: 1.56 µM
  TGI: 4.69 µM
SK-MEL-28 melanoma
  GI50: 3.83 µM
  TGI: 17.9 µM
NCI-H460 lung
  GI50: 0.578 µM
  TGI: 2.25 µM
KM12 colon
  GI50: 15.9 µM
  TGI: > 100 µM
OVCAR-8 ovarian
  GI50: 3.85 µM
  TGI: 21.1 µM
RPMI-8226 leukemia
  GI50: 3.4 µM
  TGI: > 100 µM
MOLT-4 leukemia
  GI50: 3.63 µM
  TGI: > 100 µM
U251 CNS
  GI50: 1.24 µM
  TGI: 3.83 µM
MDA-MB-435
  GI50: 4.13 µM
  TGI: 24.8 µM
EKVX NSCLC
  GI50: 3.67 µM
  TGI: 17.2 µM
ACHN renal
  GI50: 0.858 µM
  TGI: 4.37 µM
RXF 393 renal
  GI50: 1.97 µM
  TGI: 5.49 µM
MALME-3M melanoma
  GI50: 2.39 µM
  TGI: 11.5 µM
SN12C renal
  GI50: 11.8 µM
  TGI: 57 µM
CCRF-CEM leukemia
  GI50: 0.814 µM
  TGI: > 100 µM
MCF7 breast
  GI50: 0.893 µM
  TGI: 11.4 µM
SK-MEL-2 melanoma
  GI50: 4.4 µM
  TGI: 20 µM
HS 578T breast
  GI50: 1.71 µM
  TGI: 8.14 µM
K-562 leukemia
  GI50: 4.46 µM
  TGI: > 100 µM
HCT-15 colon
  GI50: 1.38 µM
  TGI: 16.8 µM
OVCAR-3 ovarian
  GI50: 2.57 µM
  TGI: 10.1 µM
UO-31 renal
  GI50: 0.761 µM
  TGI: 3.01 µM
SR leukemia
  GI50: 8.62 µM
  TGI: > 100 µM
NCI/ADR-RES ovarian
  GI50: 1.34 µM
  TGI: 5.72 µM
HOP-92 NSCLC
  GI50: 1.23 µM
  TGI: 4.01 µM
PC-3 prostate
  GI50: 1.42 µM
  TGI: 7.02 µM
UACC-62 melanoma
  GI50: 2.91 µM
  TGI: 12 µM
SK-OV-3 ovarian
  GI50: 3.54 µM
  TGI: 9.87 µM
HOP-62 NSCLC
  GI50: 2.25 µM
  TGI: 5.1 µM
